Test results taken from ChEMBL document CHEMBL5357082, “Identification and Optimization of Small Molecule Pyrazolopyrimidine TLR7 Agonists for Applications in Immuno-oncology” (ACS Med Chem Lett, 2024).
Calls of active or inactive are those of the source. The rule behind the calls is not given here.

Key:
[1] = Cytotoxicity against PHA-activated T-cells (unknown origin) assessed as inhibition of IL-2 induced cell proliferation measured after 72 hrs by MTS assay; type: toxicity, cell-based
[2] = target: Voltage-gated inwardly rectifying potassium channel KCNH2 (Homo sapiens, UniProt Q12809); assay: Inhibition of hERG; type: toxicity
Voltage-gated inwardly rectifying potassium channel KCNH2, sequence (Q12809 whole entry): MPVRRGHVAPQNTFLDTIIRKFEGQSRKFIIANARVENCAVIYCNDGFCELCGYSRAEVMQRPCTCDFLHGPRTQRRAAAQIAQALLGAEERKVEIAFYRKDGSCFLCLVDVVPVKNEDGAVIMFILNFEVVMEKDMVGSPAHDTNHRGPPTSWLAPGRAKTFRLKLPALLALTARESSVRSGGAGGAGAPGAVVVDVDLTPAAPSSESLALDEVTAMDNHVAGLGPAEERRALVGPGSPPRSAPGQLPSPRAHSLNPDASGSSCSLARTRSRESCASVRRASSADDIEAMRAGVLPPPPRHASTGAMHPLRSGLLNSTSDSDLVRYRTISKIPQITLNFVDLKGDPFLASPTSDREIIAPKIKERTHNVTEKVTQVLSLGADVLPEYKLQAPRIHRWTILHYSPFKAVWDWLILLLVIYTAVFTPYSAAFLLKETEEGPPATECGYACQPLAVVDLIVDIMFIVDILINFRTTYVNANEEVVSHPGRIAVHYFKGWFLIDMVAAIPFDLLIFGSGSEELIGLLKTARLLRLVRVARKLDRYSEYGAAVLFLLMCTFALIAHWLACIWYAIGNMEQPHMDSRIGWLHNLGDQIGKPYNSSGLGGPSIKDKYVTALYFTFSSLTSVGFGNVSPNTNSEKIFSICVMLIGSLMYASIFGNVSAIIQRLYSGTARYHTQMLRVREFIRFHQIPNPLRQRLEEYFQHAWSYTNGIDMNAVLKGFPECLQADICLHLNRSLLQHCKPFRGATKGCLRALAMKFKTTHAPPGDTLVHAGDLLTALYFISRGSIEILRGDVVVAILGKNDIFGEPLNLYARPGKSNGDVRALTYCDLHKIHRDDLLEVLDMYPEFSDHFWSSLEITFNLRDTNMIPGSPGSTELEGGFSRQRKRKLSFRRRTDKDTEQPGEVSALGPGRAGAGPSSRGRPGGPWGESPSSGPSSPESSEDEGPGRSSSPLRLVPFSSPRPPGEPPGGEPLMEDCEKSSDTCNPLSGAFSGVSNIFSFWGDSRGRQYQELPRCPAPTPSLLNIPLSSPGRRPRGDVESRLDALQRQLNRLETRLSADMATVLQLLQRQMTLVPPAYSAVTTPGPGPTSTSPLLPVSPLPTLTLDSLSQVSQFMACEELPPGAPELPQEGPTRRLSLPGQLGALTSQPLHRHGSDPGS

[3] = Metabolic stability in human liver microsomes assessed as compound remaining at 0.5 uM incubated for 10 mins in presence of NADPH by UV absorbance based assay; type: ADME, Microsome; details: read-out: Stability
[4] = Metabolic stability in mouse liver microsomes assessed as compound remaining at 0.5 uM incubated for 10 mins in presence of NADPH by UV absorbance based assay; type: ADME, Microsome; details: read-out: Stability
[5] = target: T1, Toll-like receptor 7 (Mus musculus) (UniProt P58681); assay: (§1) Agonist activity at mouse TLR7
T1 sequence (whole entry): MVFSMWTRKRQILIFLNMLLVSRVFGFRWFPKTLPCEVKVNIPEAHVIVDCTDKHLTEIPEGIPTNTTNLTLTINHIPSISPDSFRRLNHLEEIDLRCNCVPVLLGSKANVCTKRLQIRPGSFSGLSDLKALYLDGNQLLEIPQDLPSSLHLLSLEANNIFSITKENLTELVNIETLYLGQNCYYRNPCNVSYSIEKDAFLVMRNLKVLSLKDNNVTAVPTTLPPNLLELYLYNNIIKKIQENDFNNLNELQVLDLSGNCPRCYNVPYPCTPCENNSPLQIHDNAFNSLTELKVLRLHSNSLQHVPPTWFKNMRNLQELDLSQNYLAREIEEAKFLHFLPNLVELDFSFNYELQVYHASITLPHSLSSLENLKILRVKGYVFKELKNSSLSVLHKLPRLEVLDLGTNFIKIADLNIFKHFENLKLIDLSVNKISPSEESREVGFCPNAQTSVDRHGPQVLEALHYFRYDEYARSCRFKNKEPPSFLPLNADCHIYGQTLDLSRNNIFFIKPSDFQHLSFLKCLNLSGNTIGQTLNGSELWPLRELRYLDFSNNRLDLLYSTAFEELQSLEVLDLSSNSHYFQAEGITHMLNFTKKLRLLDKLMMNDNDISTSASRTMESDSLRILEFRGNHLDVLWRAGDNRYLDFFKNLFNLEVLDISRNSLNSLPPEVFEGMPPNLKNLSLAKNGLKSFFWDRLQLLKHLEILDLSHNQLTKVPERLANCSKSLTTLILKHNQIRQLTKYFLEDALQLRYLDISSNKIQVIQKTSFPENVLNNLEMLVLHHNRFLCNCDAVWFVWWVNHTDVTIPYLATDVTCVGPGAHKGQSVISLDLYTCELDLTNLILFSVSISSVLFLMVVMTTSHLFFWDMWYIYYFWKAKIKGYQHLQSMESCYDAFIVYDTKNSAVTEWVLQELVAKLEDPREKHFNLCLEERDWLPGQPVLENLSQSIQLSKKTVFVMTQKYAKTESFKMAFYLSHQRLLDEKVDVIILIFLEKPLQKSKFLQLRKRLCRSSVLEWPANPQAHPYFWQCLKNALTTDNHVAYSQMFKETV

[6] = target: T2, Cytochrome P450 3A4 (Homo sapiens, UniProt P08684); assay: Inhibition of CYP3A4 (unknown origin) using BFC as substrate preincubated with compound followed by substrate addition at 5 mins; type: ADME
T2 sequence (P08684 whole entry): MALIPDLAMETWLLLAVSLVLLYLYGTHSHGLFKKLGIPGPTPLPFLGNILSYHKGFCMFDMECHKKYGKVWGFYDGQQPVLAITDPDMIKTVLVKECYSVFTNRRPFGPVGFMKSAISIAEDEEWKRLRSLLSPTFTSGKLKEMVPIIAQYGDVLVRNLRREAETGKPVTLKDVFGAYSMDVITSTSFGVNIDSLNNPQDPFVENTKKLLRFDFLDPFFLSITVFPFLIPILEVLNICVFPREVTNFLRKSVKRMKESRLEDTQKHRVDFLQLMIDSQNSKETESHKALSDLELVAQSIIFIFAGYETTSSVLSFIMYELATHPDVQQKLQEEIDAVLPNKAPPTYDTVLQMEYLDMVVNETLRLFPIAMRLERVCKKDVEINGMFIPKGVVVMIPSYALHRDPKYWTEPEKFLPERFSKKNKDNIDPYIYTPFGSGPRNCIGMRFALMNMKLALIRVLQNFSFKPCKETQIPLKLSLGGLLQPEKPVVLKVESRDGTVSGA

[7] = target: T2, Cytochrome P450 3A4; assay: Inhibition of CYP3A4 (unknown origin) using BFC as substrate preincubated with compound followed by substrate addition at 30 mins; type: ADME
[8] = target: Cytochrome P450 2C9 (Homo sapiens, UniProt P11712); assay: Inhibition of CYP2C9 (unknown origin); type: ADME
Cytochrome P450 2C9, sequence (P11712 whole entry): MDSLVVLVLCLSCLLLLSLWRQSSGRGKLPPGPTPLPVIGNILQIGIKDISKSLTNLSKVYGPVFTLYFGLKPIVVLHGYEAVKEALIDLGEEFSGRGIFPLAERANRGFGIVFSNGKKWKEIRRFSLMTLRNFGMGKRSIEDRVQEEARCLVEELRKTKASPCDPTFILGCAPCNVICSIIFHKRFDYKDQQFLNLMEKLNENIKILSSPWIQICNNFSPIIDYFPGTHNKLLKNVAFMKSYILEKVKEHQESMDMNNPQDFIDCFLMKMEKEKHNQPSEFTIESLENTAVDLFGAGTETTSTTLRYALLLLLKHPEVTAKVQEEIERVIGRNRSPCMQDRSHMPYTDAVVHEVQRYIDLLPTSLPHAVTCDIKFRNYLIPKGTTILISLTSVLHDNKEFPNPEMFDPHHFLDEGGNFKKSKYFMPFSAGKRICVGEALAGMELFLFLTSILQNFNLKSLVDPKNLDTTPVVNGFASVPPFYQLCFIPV

[9] = target: T2, Cytochrome P450 3A4; assay: Inhibition of CYP3A4 (unknown origin) using BFC as substrate; type: ADME
[10] = target: Cytochrome P450 2C19 (Homo sapiens, UniProt P33261); assay: Inhibition of CYP2C19 (unknown origin); type: ADME
Cytochrome P450 2C19, sequence (P33261 whole entry): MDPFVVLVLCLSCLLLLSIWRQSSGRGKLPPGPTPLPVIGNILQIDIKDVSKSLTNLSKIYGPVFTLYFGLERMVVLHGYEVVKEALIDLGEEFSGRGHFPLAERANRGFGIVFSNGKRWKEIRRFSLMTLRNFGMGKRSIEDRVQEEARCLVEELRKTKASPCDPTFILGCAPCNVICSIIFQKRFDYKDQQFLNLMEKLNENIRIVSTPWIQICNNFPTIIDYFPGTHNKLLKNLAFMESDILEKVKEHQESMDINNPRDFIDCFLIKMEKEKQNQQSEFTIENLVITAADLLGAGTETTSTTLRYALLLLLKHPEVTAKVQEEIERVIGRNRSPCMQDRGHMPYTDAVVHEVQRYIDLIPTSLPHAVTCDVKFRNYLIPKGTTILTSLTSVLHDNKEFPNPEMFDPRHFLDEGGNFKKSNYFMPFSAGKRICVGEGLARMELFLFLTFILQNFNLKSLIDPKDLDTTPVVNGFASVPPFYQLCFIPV

[11] = target: Cytochrome P450 2D6 (Homo sapiens, UniProt P10635); assay: Inhibition of CYP2D6 (unknown origin); type: ADME
Cytochrome P450 2D6, sequence (P10635 whole entry): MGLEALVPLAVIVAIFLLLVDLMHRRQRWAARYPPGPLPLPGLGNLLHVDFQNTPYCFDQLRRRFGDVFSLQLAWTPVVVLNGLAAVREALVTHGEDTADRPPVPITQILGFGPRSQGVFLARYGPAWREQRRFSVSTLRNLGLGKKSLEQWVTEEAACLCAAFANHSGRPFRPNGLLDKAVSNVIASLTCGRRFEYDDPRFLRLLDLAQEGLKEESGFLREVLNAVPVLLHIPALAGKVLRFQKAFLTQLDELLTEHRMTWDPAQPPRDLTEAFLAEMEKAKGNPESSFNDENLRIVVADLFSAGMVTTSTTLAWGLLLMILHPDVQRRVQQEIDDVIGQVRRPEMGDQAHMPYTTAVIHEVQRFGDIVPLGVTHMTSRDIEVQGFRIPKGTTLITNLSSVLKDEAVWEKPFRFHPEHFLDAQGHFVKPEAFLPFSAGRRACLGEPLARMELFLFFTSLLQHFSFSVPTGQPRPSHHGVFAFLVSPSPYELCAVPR

[12] = target: T3, Cytochrome P450 1A2 (Homo sapiens, UniProt P05177); assay: Inhibition of CYP1A2 (unknown origin); type: ADME
T3 sequence (P05177 whole entry): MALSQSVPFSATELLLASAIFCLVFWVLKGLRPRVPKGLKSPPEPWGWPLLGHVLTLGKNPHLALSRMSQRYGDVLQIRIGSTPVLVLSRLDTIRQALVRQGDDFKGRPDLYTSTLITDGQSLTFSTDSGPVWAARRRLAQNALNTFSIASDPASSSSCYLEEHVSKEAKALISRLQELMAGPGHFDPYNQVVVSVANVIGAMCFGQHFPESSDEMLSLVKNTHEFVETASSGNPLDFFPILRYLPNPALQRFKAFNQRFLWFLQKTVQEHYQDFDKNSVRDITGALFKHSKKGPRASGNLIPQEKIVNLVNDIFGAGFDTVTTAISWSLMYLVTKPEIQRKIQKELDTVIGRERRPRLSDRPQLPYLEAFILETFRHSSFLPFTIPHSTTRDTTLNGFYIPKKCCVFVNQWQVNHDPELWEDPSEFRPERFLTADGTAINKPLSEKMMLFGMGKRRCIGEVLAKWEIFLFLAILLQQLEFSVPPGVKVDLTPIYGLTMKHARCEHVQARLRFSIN

[13] = target: T4, Cytochrome P450 2C8 (Homo sapiens, UniProt P10632); assay: Inhibition of CYP2C8 (unknown origin); type: ADME
T4 sequence (P10632 whole entry): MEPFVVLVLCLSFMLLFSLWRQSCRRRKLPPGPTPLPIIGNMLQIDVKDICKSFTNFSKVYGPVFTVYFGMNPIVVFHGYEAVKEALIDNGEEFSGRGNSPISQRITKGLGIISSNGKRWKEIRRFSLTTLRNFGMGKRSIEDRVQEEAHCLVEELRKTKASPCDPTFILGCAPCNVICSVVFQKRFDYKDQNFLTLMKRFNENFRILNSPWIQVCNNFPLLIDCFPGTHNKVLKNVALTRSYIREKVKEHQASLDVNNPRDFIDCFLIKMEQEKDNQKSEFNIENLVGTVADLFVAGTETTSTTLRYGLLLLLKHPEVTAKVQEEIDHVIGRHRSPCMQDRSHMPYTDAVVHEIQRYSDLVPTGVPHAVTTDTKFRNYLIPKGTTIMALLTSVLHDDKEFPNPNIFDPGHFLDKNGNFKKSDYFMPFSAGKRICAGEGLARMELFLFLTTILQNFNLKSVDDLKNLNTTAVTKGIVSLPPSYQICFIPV

[14] = target: T5, Toll-like receptor 7 (Homo sapiens, UniProt Q9NYK1); assay: Agonist activity at human TLR7 in HEK-Blue hTLR7 cells harboring SEAP reporter transgene incubated for 18 hrs by quanti-blue reagent based assay; type: cell-based
T5 sequence (Q9NYK1 whole entry): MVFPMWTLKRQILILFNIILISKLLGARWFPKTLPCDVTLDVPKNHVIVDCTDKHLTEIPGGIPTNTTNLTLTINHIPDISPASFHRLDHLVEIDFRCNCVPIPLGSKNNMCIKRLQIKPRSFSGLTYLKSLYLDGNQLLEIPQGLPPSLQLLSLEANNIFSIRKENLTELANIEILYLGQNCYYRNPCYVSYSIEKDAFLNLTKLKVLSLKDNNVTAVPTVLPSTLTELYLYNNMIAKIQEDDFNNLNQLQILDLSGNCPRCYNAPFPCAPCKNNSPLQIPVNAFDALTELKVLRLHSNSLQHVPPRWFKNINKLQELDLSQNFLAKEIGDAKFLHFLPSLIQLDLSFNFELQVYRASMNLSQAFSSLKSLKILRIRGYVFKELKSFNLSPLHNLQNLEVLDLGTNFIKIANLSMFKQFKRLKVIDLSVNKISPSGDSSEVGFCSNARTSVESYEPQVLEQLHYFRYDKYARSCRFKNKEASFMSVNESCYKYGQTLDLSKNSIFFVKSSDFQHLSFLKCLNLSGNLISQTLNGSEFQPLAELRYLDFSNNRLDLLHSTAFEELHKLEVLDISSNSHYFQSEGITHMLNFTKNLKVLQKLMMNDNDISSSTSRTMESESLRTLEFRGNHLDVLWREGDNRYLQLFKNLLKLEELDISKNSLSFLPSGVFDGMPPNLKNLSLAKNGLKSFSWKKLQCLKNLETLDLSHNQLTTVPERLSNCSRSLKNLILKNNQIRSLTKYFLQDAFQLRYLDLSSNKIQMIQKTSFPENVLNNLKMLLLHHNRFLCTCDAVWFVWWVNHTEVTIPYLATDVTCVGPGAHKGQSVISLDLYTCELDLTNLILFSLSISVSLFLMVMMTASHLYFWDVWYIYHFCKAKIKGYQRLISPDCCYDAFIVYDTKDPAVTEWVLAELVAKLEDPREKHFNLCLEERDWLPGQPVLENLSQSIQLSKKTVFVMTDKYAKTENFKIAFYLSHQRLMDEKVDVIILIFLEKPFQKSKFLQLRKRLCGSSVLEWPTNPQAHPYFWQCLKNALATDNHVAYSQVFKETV

[15] = target: T6, Toll-like receptor 7 (Mus musculus, UniProt P58681); assay: as §1
T6 sequence (P58681 whole entry): T1 sequence (whole entry)

[16] = Permeability of compound at pH 7.4 by PAMPA; type: ADME; details: read-out: permeability

Row | remaining at 10 min, 0.5 µM [3] [%] | remaining at 10 min, 0.5 µM [4] [%] | Activity [5] | IC50 [6] [µM] | IC50 [7] [µM] | IC50 [8] [µM] | IC50 [9] [µM] | IC50 [10] [µM] | IC50 [11] [µM] | IC50 [12] [µM] | IC50 [13] [µM] | EC50 [14] [µM] | EC50 [15] [µM] | Papp [16] [×10⁻⁶ cm/s] | SMILES | IC50 at 72 h [1] [µM] | IC50 [2] [µM]
1 | 67 | 95 | inactive | > 20 | > 20 | > 20 | > 20 | > 20 | > 20 | > 20 | > 20 | 0.272 | – | – | CCC[C@H](CCO)Nc1nc(N)nc2cnn(Cc3ncc(C4CCN(C5CCOCC5)CC4)cc3OC)c12 | > 25 | > 50
2 | 78 | 76 | – | > 20 | > 20 | > 20 | > 20 | > 20 | > 20 | > 20 | > 20 | – | 0.076 | 6.6 | CCC[C@@H](CCO)Nc1nc(N)nc2cnn(Cc3ncc(C4CCN(C)CC4)cc3OC)c12 | > 25 | 43
3 | 65 | 67 | inactive | > 20 | > 20 | > 20 | > 20 | > 20 | > 20 | > 20 | > 20 | 0.145 | – | – | CCC[C@@H](CCO)Nc1nc(N)nc2cnn(Cc3ncc(C4CCN(CC#N)CC4)cc3OC)c12 | > 25 | 30.2
4 | 84 | 85 | – | > 20 | > 20 | > 20 | > 20 | > 20 | > 20 | > 20 | > 20 | 0.163 | 0.512 | 0.9 | CCC[C@@H](CCO)Nc1nc(N)nc2cnn(Cc3ncc(C4CCNCC4)cc3OC)c12 | > 25 | > 50
5 | 100 | 100 | inactive | > 20 | > 20 | > 20 | > 20 | > 20 | > 20 | > 20 | > 20 | – | – | – | CCC[C@@H](CCO)Nc1nc(N)nc2cnn(Cc3ncc(C4CCN(C5CCNCC5)CC4)cc3OC)c12 | > 25 | 32.6
6 | 80 | 78 | – | > 20 | > 20 | > 20 | > 20 | > 20 | > 20 | > 20 | > 20 | 0.018 | 0.041 | 93 | CCC[C@@H](CCO)Nc1nc(N)nc2cnn(Cc3ncc(C4CCN(C(C)C)CC4)cc3OC)c12 | > 25 | > 50
